Measured values reported in patent publication US20060051352A1, “CEA binding agents and compositions to reverse CEA-mediated tumorigenic effects on human cancer cells, restore sensitivity to drug induced apoptosis and uses thereof” (priority 2004, published 2006).
Bridge positions count the residues as written; N and C are the ends.

T1: human carcinoembryonic antigen (CEA), wild type (human, UniProt P06731 35-685, glycophosphatidyl inositol (GPI) membrane anchor)
T1 sequence (looked up): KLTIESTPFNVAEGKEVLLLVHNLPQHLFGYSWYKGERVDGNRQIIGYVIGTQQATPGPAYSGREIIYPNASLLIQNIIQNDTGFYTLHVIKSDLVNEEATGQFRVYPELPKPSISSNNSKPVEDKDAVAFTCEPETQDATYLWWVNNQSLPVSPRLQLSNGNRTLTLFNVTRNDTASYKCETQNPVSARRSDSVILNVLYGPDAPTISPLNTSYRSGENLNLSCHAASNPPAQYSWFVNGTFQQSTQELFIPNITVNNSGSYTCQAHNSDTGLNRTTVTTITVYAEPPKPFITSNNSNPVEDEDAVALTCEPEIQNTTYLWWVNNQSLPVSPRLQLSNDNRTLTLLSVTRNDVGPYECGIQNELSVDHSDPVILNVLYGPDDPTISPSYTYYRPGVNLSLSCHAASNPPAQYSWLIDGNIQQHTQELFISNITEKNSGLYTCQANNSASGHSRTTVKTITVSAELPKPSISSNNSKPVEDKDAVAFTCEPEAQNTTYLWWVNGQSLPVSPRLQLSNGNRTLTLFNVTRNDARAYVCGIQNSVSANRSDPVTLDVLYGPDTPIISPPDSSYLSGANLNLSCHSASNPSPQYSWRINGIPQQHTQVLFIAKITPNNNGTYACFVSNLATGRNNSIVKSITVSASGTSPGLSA


Columns and labels:
[1] = system: human colorectal carcinoma cells; assay: Lung metastases of human colorectal carcinoma cells in nude mice; format: in vivo; details: after 30 days; PEG-A20Fab 200 μg iv, Taxol 5 mg/kg ip every 6 days; versus untreated animals
Description: Mice were inoculated by intravenous injection of human colorectal carcinoma cells on day 0. Treatment was initiated either immediately following inoculation or 12 hours thereafter. PEGylated A20 Fab fragments (PEG-A20Fab) were administered intravenously (200 μg or 7-8 mg/kg) every day for the first 2 days followed by every 3 days thereafter. Taxol was administered at 5 mg/kg every 6 days (ip). After 30 days, the number of lung surface colonies, representing metastases, were counted.

[2] = system: human colorectal carcinoma cell lines, SW-1222 and LS-180; details: A20 Fab 100 μg/ml ex vivo, 0.5 mg/dose iv daily day 3-8; taxol 5 nM ex vivo, 5 mg/kg ip day 4; analysis day 9
Description: The efficacy was investigated by a treatment protocol in which the ability of the treated cells to conform to normal colonic tissue architecture and to fail to form tumors, was assessed.
Several experiments were conducted in which the effect on two human colorectal carcinoma cell lines (test cells), when mixed in a defined proportion with normal fetal rat colonic cells and grown as aggregates implanted under the kidney capsule of nude mice, of taxol alone, taxol in combination with irrelevant isotype matched control P3X Fabs, and taxol in combination with A20 Fabs, was compared. The test cells in the “mini-colons” that developed after 7-10 days were assessed for either conformance to normal crypt-like tissue architecture or for formation of tumors (43).
With this in mind, the treatment regimen employed subjecting the test cells to the maximum possible dose over the course of the assay. This regimen included three administrations of A20 Fabs to the test cells in the ex vivo portion of the assay (pre-treatment, during which the aggregates are constructed), followed by daily intravenous injections during the in vivo growth of the implanted aggregates (therapeutic treatment). Pre-treatment of the test cells with A20 Fabs at 100 μg/ml commenced on day 0. […]

[3] = system: CEA-mediated intercellular adhesion; details: from references (16), (29); cited from earlier work
[4] = target: T1, human carcinoembryonic antigen (CEA), …; assay: cell-based or functional assay

release of CEA-imposed myogenic differentiation block, % fusion of L6 (CEA) cells at 100 µM peptide [4]	Molecule	also measured
18 % fusion	H-CGYSWYKC-OH (disulfide 1-8; SMILES NCCCC[C@@H]1NC(=O)[C@H](Cc2ccc(O)cc2)NC(=O)[C@H](Cc2c[nH]c3ccccc23)NC(=O)[C@H](CO)NC(=O)[C@H](Cc2ccc(O)cc2)NC(=O)CNC(=O)[C@@H](N)CSSC[C@@H](C(=O)O)NC1=O) [cyclized peptide H-CGYSWYKC-OH (subdomain 1)]	–
36 % fusion	H-CQNDTGC-OH (disulfide 1-7; SMILES C[C@@H](O)[C@@H]1NC(=O)[C@H](CC(=O)O)NC(=O)[C@H](CC(N)=O)NC(=O)[C@H](CCC(N)=O)NC(=O)[C@@H](N)CSSC[C@@H](C(=O)O)NC(=O)CNC1=O) [cyclized peptide H-CQNDTGC-OH (subdomain 3)]	–

Continued, molecule first:

Molecule	release of CEA-imposed myogenic differentiation block, % fusion of L6 (CEA) cells at 100 µM peptide [4]	also measured
CC(=O)O[C@H]1C(=O)[C@@]2(C)[C@H]([C@H](OC(=O)c3ccccc3)[C@]3(O)C[C@H](OC(=O)[C@H](O)[C@@H](NC(=O)c4ccccc4)c4ccccc4)C(C)=C1C3(C)C)[C@]1(OC(C)=O)CO[C@@H]1C[C@@H]2O [Taxol, Paclitaxel]	–	number of lung surface colonies [1]: no effect; tumor growth in mini-colons [2]: much larger, more solid and less differentiated
H-CQNDTGC-OH (disulfide 1-7; also: synthetic cyclic peptide) [cyclized peptide representing subdomain 3 of the CEA N domain]	–	inhibition of CEA-mediated intercellular adhesion [3]: effective in inhibiting CEA-mediated intercellular adhesion
H-CGNRQIIC-OH (disulfide 1-8; SMILES CC[C@H](C)[C@@H]1NC(=O)[C@H](CCC(N)=O)NC(=O)[C@H](CCCNC(=N)N)NC(=O)[C@H](CC(N)=O)NC(=O)CNC(=O)[C@@H](N)CSSC[C@@H](C(=O)O)NC(=O)[C@H]([C@@H](C)CC)NC1=O) [cyclized peptide H-CGNRQIIC-OH (subdomain 2)]	28 % fusion	–
